These results are taken from US20160083357A1, “NOVEL TETRAZOLONE DERIVATIVES” (Hoffmann-La Roche Inc., priority 2013, published 2016).

One assay deals with T1, human CB1 receptors (Homo sapiens, UniProt P21554).
T1 construct: expressed in transfected cells; host or cells: CHO cells
The experiment in a line: cAMP assay, human CB1. The class given is cell-based. Particulars: functional cAMP assay, CHO cells expressing human CB1; read-out: Ec50: CB1 - hu cAMP. The protocol: (§1) CHO cells expressing human CB1 or CB2 receptors are seeded 17-24 hours prior to the experiment 50.000 cells per well in a black 96 well plate with flat clear bottom (Corning Costar #3904) in DMEM (Invitrogen No. 31331), lx HT supplement, with 10% fetal calf serum and incubated at 5% CO2 and 37° C. in a humidified incubator. The growth medium was exchanged with Krebs Ringer Bicarbonate buffer with 1 mM IBMX and incubated at 30° C. for 30 min. Compounds were added to a final assay volume of 100 μl and incubated for 30 min at 30° C. Using the cAMP-Nano-TRF detection kit the assay (Roche Diagnostics) was stopped by the addition of 50 μl lysis reagent (Tris, NaCl, 1.5% Triton X100, 2.5% NP40, 10% NaN3) and 50 μl detection solutions (20 μM mAb Alexa700-cAMP 1:1, and 48 μM Ruthenium-2-AHA-cAMP) and shaken for 2 h at room temperature. The time-resolved energy transfer is measured by a TRF reader (Evotec Technologies GmbH), equipped with a ND:YAG laser as excitation source. The plate is measured twice with the excitation at 355 nm and at the emission with a delay of 100 ns and a gate of 100 ns, total exposure time 10 s at 730 (bandwidth 30 nm) or 645 nm (bandwidth 75 nm), respectively. The FRET signal is calculated as follows: FRET=T730-Alexa730-P(T645-B645) with P=Ru730-B730/Ru645-B645, where T730 is the test well measured at 730 nM, T645 is the test well measured at 645 nm, B730 and B645 are the buffer controls at 730 nm and 645 nm, respectively. cAMP content is determined from the function of a standard curve spanning from 10 μM to 0.13 nM cAMP.
(§2) EC50 values were determined using Activity Base analysis (ID Business Solution, Limited). The EC50 values for a wide range of cannabinoid agonists generated from this assay were in agreement with the values published in the scientific literature.
(cAMP levels reflect the balance of adenylyl cyclase and phosphodiesterase activity.)

For a further assay, the target named is T2, human CB2 receptors (Homo sapiens, UniProt P34972).
T2 construct: expressed in transfected cells; host or cells: CHO cells
T2 sequence (P34972 whole entry): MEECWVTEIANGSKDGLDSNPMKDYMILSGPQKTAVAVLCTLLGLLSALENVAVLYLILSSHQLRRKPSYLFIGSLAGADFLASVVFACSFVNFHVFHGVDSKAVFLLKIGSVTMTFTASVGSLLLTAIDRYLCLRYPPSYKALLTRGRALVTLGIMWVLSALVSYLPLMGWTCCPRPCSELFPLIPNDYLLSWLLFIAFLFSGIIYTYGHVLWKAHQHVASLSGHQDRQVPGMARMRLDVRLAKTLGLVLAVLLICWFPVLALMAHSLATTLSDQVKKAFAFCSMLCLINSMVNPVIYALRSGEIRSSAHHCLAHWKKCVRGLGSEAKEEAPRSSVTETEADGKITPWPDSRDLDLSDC
The experiment in a line: cAMP assay, human CB2. The class given is cell-based. As to conditions: functional cAMP assay, CHO cells expressing human CB2; read-out: Ec50: CB2 - hu cAMP. The protocol: as §1, §2

T1 sequence (P21554 whole entry): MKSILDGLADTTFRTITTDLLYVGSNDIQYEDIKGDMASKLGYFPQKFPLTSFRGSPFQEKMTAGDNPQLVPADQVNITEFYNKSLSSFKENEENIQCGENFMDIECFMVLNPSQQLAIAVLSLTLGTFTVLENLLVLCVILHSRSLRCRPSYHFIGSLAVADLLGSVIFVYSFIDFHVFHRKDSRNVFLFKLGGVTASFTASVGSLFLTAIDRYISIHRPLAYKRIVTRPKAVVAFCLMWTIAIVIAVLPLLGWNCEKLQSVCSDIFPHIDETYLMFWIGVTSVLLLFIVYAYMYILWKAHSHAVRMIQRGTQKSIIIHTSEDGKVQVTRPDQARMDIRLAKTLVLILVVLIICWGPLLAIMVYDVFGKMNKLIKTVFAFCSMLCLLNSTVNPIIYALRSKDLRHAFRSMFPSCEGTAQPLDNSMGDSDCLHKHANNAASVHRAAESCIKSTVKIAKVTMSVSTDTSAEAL

In the case of `COCCN(CCOC)C(=O)n1nnn(-c2cccc(F)c2)c1=O` [Example 57, 4-(3-Fluoro-phenyl)-5-oxo-4,5-dihydro-tetrazole-1-carboxylic acid bis-(2-methoxy-ethyl)-amide], the EC50 is more than 10000 nM at human CB1 receptors and 8.5 nM on human CB2 receptors.

Turning to `CC1CN(C(=O)n2nnn(-c3cccc(F)c3)c2=O)CC(C)O1` (stereo not shown) [Example 58, 1-(2,6-Dimethyl-morpholine-4-carbonyl)-4-(3-fluoro-phenyl)-1,4-dihydro-tetrazol-5-one], the EC50 on human CB1 receptors is more than 10000 nM; at human CB2 receptors, 45.4 nM.

For the compound `C[C@@H]1CN(C(=O)n2nnn(-c3cccc(F)c3)c2=O)C[C@H](C)O1` [Example 59, 1-((2S,6R)-2,6-Dimethyl-morpholine-4-carbonyl)-4-(3-fluoro-phenyl)-1,4-dihydro-tetrazol-5-one], the half-maximal effective concentration (EC50) at human CB1 receptors was more than 10000 nM; at human CB2 receptors, 988 nM.

Take `COCC1CCN(C(=O)n2nnn(-c3cccc(F)c3)c2=O)CC1` [Example 60, 1-(3-Fluoro-phenyl)-4-(4-methoxymethyl-piperidine-1-carbonyl)-1,4-dihydro-tetrazol-5-one]: the EC50 is more than 10000 nM on human CB1 receptors and 1.3 nM at human CB2 receptors.

`N#CC1CCN(C(=O)n2nnn(-c3cccc(F)c3)c2=O)CC1` [Example 61, 1-[4-(3-Fluoro-phenyl)-5-oxo-4,5-dihydro-tetrazole-1-carbonyl]-piperidine-4-carbonitrile]: the EC50 at human CB1 receptors is more than 10000 nM; at human CB2 receptors, 6.8 nM.

For the compound `COC(=O)C1(NC(=O)OC(C)(C)C)CCN(C(=O)n2nnn(-c3cccc(F)c3)c2=O)CC1` [Example 62, 4-tert-Butoxycarbonylamino-1-[4-(3-fluoro-phenyl)-5-oxo-4,5-dihydro-tetrazole-1-carbonyl]-piperidine-4-carboxylic acid methyl ester], the concentration for a half-maximal effect (EC50) at human CB1 receptors was more than 10000 nM; at human CB2 receptors, 61.4 nM.

Regarding `CC1(C)CCCN(C(=O)n2nnn(-c3cccc(F)c3)c2=O)C1` [Example 63, 1-(3,3-Dimethyl-piperidine-1-carbonyl)-4-(3-fluoro-phenyl)-1,4-dihydro-tetrazol-5-one], the EC50 at human CB1 receptors is more than 10000 nM; on human CB2 receptors it was 1.8 nM.

Regarding `O=C(N1CCC2(CCOC2)CC1)n1nnn(-c2cccc(F)c2)c1=O` [Example 64, 1-(3-Fluoro-phenyl)-4-(2-oxa-8-aza-spiro[4.5]decane-8-carbonyl)-1,4-dihydro-tetrazol-5-one], the EC50 is more than 10000 nM at human CB1 receptors and 2.5 nM at human CB2 receptors.

For `CC(=O)N[C@@H]1CCN(C(=O)n2nnn(-c3cccc(Cl)c3)c2=O)C1` [Example 65, N—{(R)-1-[4-(3-Chloro-phenyl)-5-oxo-4,5-dihydro-tetrazole-1-carbonyl]-pyrrolidin-3-yl}-acetamide], the figures for the EC50 on human CB1 receptors and on human CB2 receptors were more than 10000 nM and 15 nM, respectively.

`CC(=O)N[C@@H]1CCN(C(=O)n2nnn(-c3cccc(OC(F)(F)F)c3)c2=O)C1` [Example 66, N—{(R)-1-[5-Oxo-4-(3-trifluoromethoxy-phenyl)-4,5-dihydro-tetrazole-1-carbonyl]-pyrrolidin-3-yl}-acetamide]: the values for the EC50 on human CB1 receptors and at human CB2 receptors were more than 10000 nM and 20.4 nM, respectively.

As for `CC(=O)N[C@@H]1CCN(C(=O)n2nnn(-c3ccc(Cl)cc3)c2=O)C1` [Example 67, N—{(R)-1-[4-(4-Chloro-phenyl)-5-oxo-4,5-dihydro-tetrazole-1-carbonyl]-pyrrolidin-3-yl}-acetamide], the EC50 on human CB1 receptors was more than 10000 nM; on human CB2 receptors it was 14.6 nM.

For `CC(=O)N[C@H]1CCN(C(=O)n2nnn(-c3cccc(Cl)c3)c2=O)C1` [Example 68, N—{(S)-1-[4-(3-Chloro-phenyl)-5-oxo-4,5-dihydro-tetrazole-1-carbonyl]-pyrrolidin-3-yl}-acetamide], the EC50 was more than 10000 nM at human CB1 receptors and 39.5 nM at human CB2 receptors.

As for `CC(=O)N[C@H]1CCN(C(=O)n2nnn(-c3cccc(OC(F)(F)F)c3)c2=O)C1` [Example 69, N—{(S)-1-[5-Oxo-4-(3-trifluoromethoxy-phenyl)-4,5-dihydro-tetrazole-1-carbonyl]-pyrrolidin-3-yl}-acetamide], the EC50 on human CB1 receptors is more than 10000 nM; at human CB2 receptors it was 18.2 nM.

Consider `CC(=O)N[C@H]1CCN(C(=O)n2nnn(-c3ccc(Cl)cc3)c2=O)C1` [Example 70, N—{(S)-1-[4-(4-Chloro-phenyl)-5-oxo-4,5-dihydro-tetrazole-1-carbonyl]-pyrrolidin-3-yl}-acetamide], for which the EC50 on human CB1 receptors was more than 10000 nM; at human CB2 receptors, 32.1 nM.

Turning to `CCN(C(C)=O)C1CCN(C(=O)n2nnn(-c3cccc(Cl)c3)c2=O)C1` (stereo not shown) [Example 71, N-{1-[4-(3-Chloro-phenyl)-5-oxo-4,5-dihydro-tetrazole-1-carbonyl]-pyrrolidin-3-yl}-N-ethyl-acetamide], the EC50 is more than 10000 nM at human CB1 receptors and 16.7 nM at human CB2 receptors.

For the compound `CCN(C(C)=O)C1CCN(C(=O)n2nnn(-c3cccc(OC(F)(F)F)c3)c2=O)C1` (stereo not shown) [Example 72, N-Ethyl-N-{1-[5-oxo-4-(3-trifluoromethoxy-phenyl)-4,5-dihydro-tetrazole-1-carbonyl]-pyrrolidin-3-yl}-acetamide], the results for the EC50 on human CB1 receptors and on human CB2 receptors were more than 10000 nM and 27 nM, respectively.

`CCN(C(C)=O)C1CCN(C(=O)n2nnn(-c3ccc(Cl)cc3)c2=O)C1` (stereo not shown) [Example 73, N-{1-[4-(4-Chloro-phenyl)-5-oxo-4,5-dihydro-tetrazole-1-carbonyl]-pyrrolidin-3-yl}-N-ethyl-acetamide]: the EC50 at human CB1 receptors was more than 10000 nM; on human CB2 receptors it was 10.8 nM.

As to `Cc1cc(C2CCCN2C(=O)n2nnn(-c3cccc(Cl)c3)c2=O)on1` (stereo not shown) [Example 74, 1-(3-Chloro-phenyl)-4-[2-(3-methyl-isoxazol-5-yl)-pyrrolidine-1-carbonyl]-1,4-dihydro-tetrazol-5-one], the EC50 was more than 10000 nM on human CB1 receptors and 9.7 nM at human CB2 receptors.

For the compound `Cc1cc(C2CCCN2C(=O)n2nnn(-c3cccc(OC(F)(F)F)c3)c2=O)on1` (stereo not shown) [Example 75, 1-[2-(3-Methyl-isoxazol-5-yl)-pyrrolidine-1-carbonyl]-4-(3-trifluoromethoxy-phenyl)-1,4-dihydro-tetrazol-5-one], the EC50 is more than 10000 nM at human CB1 receptors and 28.5 nM at human CB2 receptors.

On to `Cc1cc(C2CCCN2C(=O)n2nnn(-c3ccc(Cl)cc3)c2=O)on1` (stereo not shown) [Example 76, 1-(4-Chloro-phenyl)-4-[2-(3-methyl-isoxazol-5-yl)-pyrrolidine-1-carbonyl]-1,4-dihydro-tetrazol-5-one], for which the EC50 is more than 10000 nM at human CB1 receptors and 7.4 nM at human CB2 receptors.

Regarding `CC1(C)CCN(C(=O)n2nnn(-c3cccc(Cl)c3)c2=O)CC1` [Example 77, 1-(3-Chloro-phenyl)-4-(4,4-dimethyl-piperidine-1-carbonyl)-1,4-dihydro-tetrazol-5-one], the EC50 at human CB1 receptors was more than 10000 nM; at human CB2 receptors, 0.6 nM.

With `CC1(C)CCN(C(=O)n2nnn(-c3cccc(OC(F)(F)F)c3)c2=O)CC1` [Example 78, 1-(4,4-Dimethyl-piperidine-1-carbonyl)-4-(3-trifluoromethoxy-phenyl)-1,4-dihydro-tetrazol-5-one], the EC50 was more than 10000 nM on human CB1 receptors and 1.5 nM on human CB2 receptors.

On to `CC1(C)CCN(C(=O)n2nnn(-c3ccc(Cl)cc3)c2=O)CC1` [Example 79, 1-(4-Chloro-phenyl)-4-(4,4-dimethyl-piperidine-1-carbonyl)-1,4-dihydro-tetrazol-5-one], for which the half-maximal effective concentration (EC50) on human CB1 receptors is more than 10000 nM; at human CB2 receptors, 0.9 nM.

For orientation: EC50 means the concentration at which the effect is half-maximal.
